Measurements published in patent US12544463B2, “Deuterium substituted positron emission tomography (PET) imaging agents and their pharmacological application” (Five Eleven Pharma Inc., priority 2017, dated 2026).
Values belong to the compound of their own block, whether it stands above or below them.

Tests used:
[1] = target: T1, serotonin transporters (SERT) (Rattus norvegicus, UniProt P31652); experiment: In vitro binding assay, LLC-SERT membrane homogenates, [^125I]IDAM; conditions: for Ki: 0.2 nM [^125I]IDAM, LLC-SERT membranes, read-out: Ki (SERT binding affinity) (converted)
T1 construct: expressed in transfected cells; host or cells: LLC-PK1 (LLC-SERT)
Experimental: The membrane homogenates of serotonin transporters (LLC-SERT, which were expressed in a common parental cell line LLC-PK1) were prepared and used for the binding assays. Competitive binding assays were performed in a final volume of 0.25 mL. […] Nonspecific binding was defined with 10 μM citalopram. Incubation was carried out for 60 min at room temperature and the bound ligand was collected on glass fiber filters presoaked with 1% polyethylenimine (SIGMA, St. Louis, MO) and counted in a gamma counter (Wizard^2, Perkin Elmer).

[2] = Biodistribution in rats of ^18F-III-3 (^18F-FPBM-D12); format: in vivo, rat; conditions: for Biodistribution Blood / Biodistribution Bone / Biodistribution Brain / Biodistribution Heart / Biodistribution Kidney / Biodistribution Liver / Biodistribution Lung / Biodistribution Muscle / Biodistribution Pancreas / Biodistribution Skin / Biodistribution Spleen: normal rats, i.v.
Experimental: (§1) Three rats per group were used for each biodistribution study. While under isoflurane anesthesia, 0.2 mL of a saline solution containing 20 μCi of radioactive tracer was injected into the femoral vein. The rats were sacrificed at the time indicated by cardiac excision while under isoflurane anesthesia. Organs of interest were removed and weighed, and the radioactivity was counted. The percent dose per organ was calculated by comparing the tissue counts to counts of 1% of the initial dose (100 times diluted aliquots of the injected material) measured at the same time. Regional brain distribution in rats was measured after an iv injection of the radioactive tracer. Samples from different brain regions [cortex, striatum, hippocampus, cerebellum and hypothalamus] were dissected, weighed and counted. The percentage dose/g of each sample was calculated by comparing sample counts with the counts of the diluted initial dose described above. The ratio was calculated by dividing the percentage dose/g of each region by that of the cerebellum. The cerebellum was used as the reference region for calculating the ratio of target to non-target binding, because only a trace amount of SERT is present in the cerebellum.

SERT = target: T2, SERT (Rattus norvegicus, UniProt P31652); experiment: Region to cerebellum ratio in rats, ^18F-III-3; format: in vivo; conditions: normal rats, i.v.
T2 construct: host or cells: live rats, dissected brain regions
Experimental: as §1

[3] = Biodistribution study in mice; format: in vivo; conditions: for Biodistribution Blood / Biodistribution Bone / Biodistribution Brain / Biodistribution Heart / Biodistribution Kidney / Biodistribution Liver / Biodistribution Lung / Biodistribution Muscle / Biodistribution Pancreas / Biodistribution Skin / Biodistribution Spleen: normal male mice
Experimental: Three mice per group were used for biodistribution study. While under isoflurane anesthesia, 0.1 mL of a saline solution containing radioactive tracer was injected into tail vein. The mice were sacrificed at the time indicated by cardiac excision while under isoflurane anesthesia. Organs of interest were removed and weighed, and the radioactivity was counted. The percent dose per organ was calculated by comparing the tissue counts to counts of 1% of the initial dose (100 times diluted aliquots of the injected material) measured at the same time.

T2 sequence (P31652 whole entry): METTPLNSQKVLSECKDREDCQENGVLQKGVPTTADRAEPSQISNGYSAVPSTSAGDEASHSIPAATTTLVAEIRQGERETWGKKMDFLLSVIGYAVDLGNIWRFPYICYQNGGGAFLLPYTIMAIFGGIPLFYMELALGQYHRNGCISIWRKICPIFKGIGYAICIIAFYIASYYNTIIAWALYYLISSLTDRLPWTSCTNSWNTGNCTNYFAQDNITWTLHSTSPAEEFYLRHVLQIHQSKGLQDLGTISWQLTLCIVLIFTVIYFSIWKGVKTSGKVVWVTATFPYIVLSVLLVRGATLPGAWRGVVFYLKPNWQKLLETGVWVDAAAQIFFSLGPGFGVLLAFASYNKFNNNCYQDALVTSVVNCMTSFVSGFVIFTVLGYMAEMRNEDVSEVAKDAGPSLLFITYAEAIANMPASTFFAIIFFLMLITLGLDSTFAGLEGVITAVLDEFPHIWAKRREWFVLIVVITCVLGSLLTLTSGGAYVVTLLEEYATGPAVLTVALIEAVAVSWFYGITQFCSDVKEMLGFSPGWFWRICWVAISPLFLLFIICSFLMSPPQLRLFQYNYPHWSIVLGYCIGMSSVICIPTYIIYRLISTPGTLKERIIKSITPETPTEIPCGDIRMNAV
T1 sequence (P31652 whole entry): as above

Compound: [2H]C([2H])(F)C([2H])([2H])C([2H])([2H])Oc1ccc(Sc2ccc(Br)cc2N)c(CN(C)C)c1 [III-4-26]
Ki [1]: 0.021 nM

Compound: [2H]C([2H])([2H])N(Cc1cc(OC([2H])([2H])C([2H])([2H])C([2H])([2H])F)ccc1Sc1ccccc1N)C([2H])([2H])[2H] (single isomer, unassigned) [III-3 (FPBM- D12)]
Ki [1]: 0.086 ± 0.029 nM

Compound: CN(C)Cc1cc(O)ccc1Sc1ccc(Cl)cc1N [III-4-17]
Ki [1]: 0.03 nM

Compound: CN(C)Cc1cc(O)ccc1Sc1ccccc1N [III-1-1]
Ki [1]: 1.21 ± 0.15 nM

Compound: CN(C)Cc1ccccc1Sc1ccc(I)cc1CO [[^125I]IDAM, reference compound]
Kd ([1]; value used in Cheng-Prusoff equation): 0.2 nM

Compound: [2H]C([2H])([2H])N(Cc1cc(OC([2H])([2H])C([2H])([2H])C([2H])([2H])[18F])ccc1Sc1ccccc1N)C([2H])([2H])[2H] [^18F-III-3 (^18F-FPBM-D12)]
Biodistribution Blood ([2]; 2 min): 0.25 ± 0.04 % Dose/g | Biodistribution Bone ([2]; 2 min): 0.35 ± 0.06 % Dose/g | Biodistribution Brain ([2]; 2 min): 1.09 ± 0.06 % Dose/g | Biodistribution Heart ([2]; 2 min): 1.19 ± 0.18 % Dose/g | Biodistribution Kidney ([2]; 2 min): 3.02 ± 0.16 % Dose/g | Biodistribution Liver ([2]; 2 min): 0.74 ± 0.16 % Dose/g | Biodistribution Lung ([2]; 2 min): 9.56 ± 2.29 % Dose/g | Biodistribution Muscle ([2]; 2 min): 0.14 ± 0.02 % Dose/g | Biodistribution Pancreas ([2]; 2 min): 1.13 ± 0.02 % Dose/g | Biodistribution Skin ([2]; 2 min): 0.22 ± 0.04 % Dose/g | Biodistribution Spleen ([2]; 2 min): 1.48 ± 0.31 % Dose/g | Biodistribution Blood ([2]; 30 min): 0.16 ± 0.03 % Dose/g | Biodistribution Bone ([2]; 30 min): 0.19 ± 0.01 % Dose/g | Biodistribution Brain ([2]; 30 min): 0.81 ± 0.04 % Dose/g | Biodistribution Heart ([2]; 30 min): 0.18 ± 0.02 % Dose/g | Biodistribution Kidney ([2]; 30 min): 1.79 ± 0.38 % Dose/g | Biodistribution Liver ([2]; 30 min): 0.30 ± 0.05 % Dose/g | Biodistribution Lung ([2]; 30 min): 1.86 ± 0.42 % Dose/g | Biodistribution Muscle ([2]; 30 min): 0.09 ± 0.02 % Dose/g | Biodistribution Pancreas ([2]; 30 min): 0.27 ± 0.06 % Dose/g | Biodistribution Skin ([2]; 30 min): 0.19 ± 0.03 % Dose/g | Biodistribution Spleen ([2]; 30 min): 0.88 ± 0.05 % Dose/g | Biodistribution Blood ([2]; 60 min): 0.10 ± 0.02 % Dose/g | Biodistribution Bone ([2]; 60 min): 0.16 ± 0.02 % Dose/g | Biodistribution Brain ([2]; 60 min): 0.54 ± 0.05 % Dose/g | Biodistribution Heart ([2]; 60 min): 0.09 ± 0.01 % Dose/g | Biodistribution Kidney ([2]; 60 min): 1.29 ± 0.29 % Dose/g | Biodistribution Liver ([2]; 60 min): 0.22 ± 0.02 % Dose/g | Biodistribution Lung ([2]; 60 min): 0.85 ± 0.11 % Dose/g | Biodistribution Muscle ([2]; 60 min): 0.07 ± 0.01 % Dose/g | Biodistribution Pancreas ([2]; 60 min): 0.19 ± 0.02 % Dose/g | Biodistribution Skin ([2]; 60 min): 0.16 ± 0.01 % Dose/g | Biodistribution Spleen ([2]; 60 min): 0.46 ± 0.10 % Dose/g | Biodistribution Blood ([2]; 120 min): 0.06 ± 0.00 % Dose/g | Biodistribution Bone ([2]; 120 min): 0.13 ± 0.01 % Dose/g | Biodistribution Brain ([2]; 120 min): 0.31 ± 0.03 % Dose/g | Biodistribution Heart ([2]; 120 min): 0.05 ± 0.01 % Dose/g | Biodistribution Kidney ([2]; 120 min): 0.83 ± 0.39 % Dose/g | Biodistribution Liver ([2]; 120 min): 0.16 ± 0.01 % Dose/g | Biodistribution Lung ([2]; 120 min): 0.45 ± 0.10 % Dose/g | Biodistribution Muscle ([2]; 120 min): 0.03 ± 0.01 % Dose/g | Biodistribution Pancreas ([2]; 120 min): 0.13 ± 0.07 % Dose/g | Biodistribution Skin ([2]; 120 min): 0.10 ± 0.02 % Dose/g | Biodistribution Spleen ([2]; 120 min): 0.21 ± 0.04 % Dose/g | blood-brain-barrier penetration ([2]; rats, after i.v. injection): penetrated the blood-brain-barrier | Region to Cerebellum Ratio: Cerebellum (SERT; 2 min): 1.00 ± 0.00 | Region to Cerebellum Ratio: Cortex (SERT; 2 min): 1.44 ± 0.27 | Region to Cerebellum Ratio: Hippocampus (SERT; 2 min): 0.97 ± 0.13 | Region to Cerebellum Ratio: Hypothalamus (SERT; 2 min): 1.17 ± 0.21 | Region to Cerebellum Ratio: Remainder (SERT; 2 min): 1.21 ± 0.13 | Region to Cerebellum Ratio: Striatum (SERT; 2 min): 1.15 ± 0.18 | Region to Cerebellum Ratio: Cerebellum (SERT; 30 min): 1.00 ± 0.00 | Region to Cerebellum Ratio: Cortex (SERT; 30 min): 1.81 ± 0.30 | Region to Cerebellum Ratio: Hippocampus (SERT; 30 min): 2.04 ± 0.27 | Region to Cerebellum Ratio: Hypothalamus (SERT; 30 min): 2.99 ± 0.46 | Region to Cerebellum Ratio: Remainder (SERT; 30 min): 2.42 ± 0.13 | Region to Cerebellum Ratio: Striatum (SERT; 30 min): 2.43 ± 0.38 | Region to Cerebellum Ratio: Cerebellum (SERT; 60 min): 1.00 ± 0.00 | Region to Cerebellum Ratio: Cortex (SERT; 60 min): 2.68 ± 0.35 | Region to Cerebellum Ratio: Hippocampus (SERT; 60 min): 3.45 ± 0.42 | Region to Cerebellum Ratio: Hypothalamus (SERT; 60 min): 5.32 ± 0.45 | Region to Cerebellum Ratio: Remainder (SERT; 60 min): 3.77 ± 0.43 | Region to Cerebellum Ratio: Striatum (SERT; 60 min): 3.96 ± 0.62 | Region to Cerebellum Ratio: Cerebellum (SERT; 120 min): 1.00 ± 0.00 | Region to Cerebellum Ratio: Cortex (SERT; 120 min): 2.67 ± 0.50 | Region to Cerebellum Ratio: Hippocampus (SERT; 120 min): 3.85 ± 0.28 | Region to Cerebellum Ratio: Hypothalamus (SERT; 120 min): 7.55 ± 0.82 | Region to Cerebellum Ratio: Remainder (SERT; 120 min): 4.74 ± 0.71 | Region to Cerebellum Ratio: Striatum (SERT; 120 min): 4.69 ± 1.26

Now from value to compound, other results behind:

Ki [1]: 3.05 ± 0.81 nM
Compound: [2H]C([2H])([2H])NCc1cc(OCCCF)ccc1Sc1ccccc1N [III-6-8]

Ki [1]: 44.9 ± 2.5 nM
Compound: [2H]C([2H])(F)C([2H])([2H])C([2H])([2H])Oc1ccc(Sc2ccccc2N)c(CN)c1 [III-5-8]

Biodistribution Blood ([3]; 2 min): 2.16 ± 0.05 % Dose/g | Biodistribution Bone ([3]; 2 min): 1.74 ± 0.18 % Dose/g | Biodistribution Brain ([3]; 2 min): 6.26 ± 0.23 % Dose/g | Biodistribution Heart ([3]; 2 min): 5.08 ± 0.39 % Dose/g | Biodistribution Kidney ([3]; 2 min): 9.51 ± 0.80 % Dose/g | Biodistribution Liver ([3]; 2 min): 12.0 ± 0.70 % Dose/g | Biodistribution Lung ([3]; 2 min): 4.88 ± 0.16 % Dose/g | Biodistribution Muscle ([3]; 2 min): 3.21 ± 0.14 % Dose/g | Biodistribution Pancreas ([3]; 2 min): 4.94 ± 0.77 % Dose/g | Biodistribution Skin ([3]; 2 min): 1.24 ± 0.27 % Dose/g | Biodistribution Spleen ([3]; 2 min): 2.50 ± 0.12 % Dose/g | Biodistribution Blood ([3]; 30 min): 2.93 ± 0.27 % Dose/g | Biodistribution Bone ([3]; 30 min): 2.24 ± 0.44 % Dose/g | Biodistribution Brain ([3]; 30 min): 1.71 ± 0.37 % Dose/g | Biodistribution Heart ([3]; 30 min): 2.40 ± 0.39 % Dose/g | Biodistribution Kidney ([3]; 30 min): 6.41 ± 1.86 % Dose/g | Biodistribution Liver ([3]; 30 min): 12.0 ± 0.71 % Dose/g | Biodistribution Lung ([3]; 30 min): 2.90 ± 0.47 % Dose/g | Biodistribution Muscle ([3]; 30 min): 1.79 ± 0.06 % Dose/g | Biodistribution Pancreas ([3]; 30 min): 2.05 ± 0.29 % Dose/g | Biodistribution Skin ([3]; 30 min): 2.07 ± 0.14 % Dose/g | Biodistribution Spleen ([3]; 30 min): 1.52 ± 0.21 % Dose/g | Biodistribution Blood ([3]; 60 min): 2.08 ± 0.07 % Dose/g | Biodistribution Bone ([3]; 60 min): 2.76 ± 0.37 % Dose/g | Biodistribution Brain ([3]; 60 min): 1.53 ± 0.20 % Dose/g | Biodistribution Heart ([3]; 60 min): 1.72 ± 0.19 % Dose/g | Biodistribution Kidney ([3]; 60 min): 3.74 ± 0.47 % Dose/g | Biodistribution Liver ([3]; 60 min): 8.15 ± 0.75 % Dose/g | Biodistribution Lung ([3]; 60 min): 1.97 ± 0.25 % Dose/g | Biodistribution Muscle ([3]; 60 min): 1.20 ± 0.04 % Dose/g | Biodistribution Pancreas ([3]; 60 min): 1.43 ± 0.20 % Dose/g | Biodistribution Skin ([3]; 60 min): 1.34 ± 0.07 % Dose/g | Biodistribution Spleen ([3]; 60 min): 1.22 ± 0.12 % Dose/g | Biodistribution Blood ([3]; 120 min): 1.36 ± 0.12 % Dose/g | Biodistribution Bone ([3]; 120 min): 4.41 ± 0.77 % Dose/g | Biodistribution Brain ([3]; 120 min): 1.26 ± 0.04 % Dose/g | Biodistribution Heart ([3]; 120 min): 1.18 ± 0.03 % Dose/g | Biodistribution Kidney ([3]; 120 min): 2.09 ± 0.02 % Dose/g | Biodistribution Liver ([3]; 120 min): 5.47 ± 0.29 % Dose/g | Biodistribution Lung ([3]; 120 min): 1.31 ± 0.03 % Dose/g | Biodistribution Muscle ([3]; 120 min): 0.75 ± 0.07 % Dose/g | Biodistribution Pancreas ([3]; 120 min): 0.87 ± 0.15 % Dose/g | Biodistribution Skin ([3]; 120 min): 0.91 ± 0.13 % Dose/g | Biodistribution Spleen ([3]; 120 min): 0.83 ± 0.07 % Dose/g
Compound: [2H]C([2H])([2H])Nc1ccc(/C=C/c2ccc(OCCOCCOCC[18F])nc2)cc1 [^18F-AV-45-D3 (IIa1)]
brain uptake ([3]; mice, after i.v. injection): excellent brain uptake comparable to that observed to ^18F-AV-45
